Assays:
CsLCYB = target: T1, CsLCYB (Camellia sinensis, UniProt A0A0B4SX47); assay: E. coli pAC-LYC complementation, HPLC of pigments; format: cell-based; conditions: lycopene made in the cells; product beta-carotene; 30 °C, 48 h, darkness
T1 construct: gene lcyb; full-length cDNA subcloned into y2 plasmid; expressed in E. coli DH5alpha carrying pAC-LYC; not purified
T1 sequence (A0A0B4SX47 1-504): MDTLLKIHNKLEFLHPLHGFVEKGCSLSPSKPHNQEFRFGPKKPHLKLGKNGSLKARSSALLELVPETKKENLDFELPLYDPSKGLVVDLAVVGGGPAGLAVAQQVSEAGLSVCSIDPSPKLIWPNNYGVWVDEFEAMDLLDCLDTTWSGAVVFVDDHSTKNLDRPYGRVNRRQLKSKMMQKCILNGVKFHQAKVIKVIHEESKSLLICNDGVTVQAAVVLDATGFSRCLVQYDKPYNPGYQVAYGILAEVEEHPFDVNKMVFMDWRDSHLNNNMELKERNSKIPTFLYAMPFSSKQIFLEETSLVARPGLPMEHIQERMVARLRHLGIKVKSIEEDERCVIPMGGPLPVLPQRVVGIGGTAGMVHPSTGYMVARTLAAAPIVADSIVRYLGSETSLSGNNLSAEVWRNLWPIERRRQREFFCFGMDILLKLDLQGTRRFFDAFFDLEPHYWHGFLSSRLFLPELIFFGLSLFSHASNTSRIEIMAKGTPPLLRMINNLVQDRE

CsLCYE = target: T2, CsLCYE (Camellia sinensis, UniProt A0A7J7G232); assay: E. coli pAC-LYC complementation, HPLC of pigments; format: cell-based; conditions: lycopene made in the cells; product delta-carotene; 30 °C, 48 h, darkness
T2 construct: gene HYC85_025912; full-length cDNA subcloned into y2 plasmid; expressed in E. coli DH5alpha carrying pAC-LYC; not purified
T2 sequence (A0A7J7G232 1-531 limits assumed): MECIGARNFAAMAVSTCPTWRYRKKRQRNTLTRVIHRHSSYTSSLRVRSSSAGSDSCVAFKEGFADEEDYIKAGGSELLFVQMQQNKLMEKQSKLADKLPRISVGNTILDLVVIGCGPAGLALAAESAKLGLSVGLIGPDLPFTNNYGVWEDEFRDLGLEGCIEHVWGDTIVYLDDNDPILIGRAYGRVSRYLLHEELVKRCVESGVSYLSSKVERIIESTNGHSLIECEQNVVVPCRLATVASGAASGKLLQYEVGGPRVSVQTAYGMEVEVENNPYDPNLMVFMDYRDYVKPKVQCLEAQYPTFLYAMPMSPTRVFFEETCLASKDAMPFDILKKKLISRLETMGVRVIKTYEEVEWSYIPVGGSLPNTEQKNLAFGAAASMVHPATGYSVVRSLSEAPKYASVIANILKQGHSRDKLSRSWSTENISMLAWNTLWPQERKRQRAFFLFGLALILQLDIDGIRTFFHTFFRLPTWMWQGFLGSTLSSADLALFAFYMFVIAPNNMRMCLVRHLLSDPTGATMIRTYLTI

Structure (SMILES): CC(C)=CCC/C(C)=C/C=C/C(C)=C/C=C/C(C)=C/C=C/C=C(C)/C=C/C=C(C)/C=C/C=C(\C)CCC=C(C)C [lycopene]
- E. coli pAC-LYC complementation, HPLC of pigments (CsLCYB): CsLCYB was able to convert the lycopene produced by the cells to β-carotene
- E. coli pAC-LYC complementation, HPLC of pigments (CsLCYE): monocyclic δ-carotene and lycopene were detected, implying that CsLCYE is a functional lycopene ε-cyclase
